Results reported in article PMC4535335 (Bioorganic & medicinal chemistry letters, 2014).

What was measured:
[1] = cited from earlier work
[2] = plasma protein binding; cited from earlier work
[3] = cited from earlier work; remark: listed apart in the source
[4] = intrinsic clearance in rat hepatic microsomes fortified with NADPH; type: in vitro ADME; conditions: OCD3 for OCH3
[5] = intrinsic clearance in human hepatic microsomes fortified with NADPH; type: in vitro ADME

What does the source list for `O=C(c1ccc(F)c(F)c1)N1CCN2C(=O)c3ccccc3[C@@]12c1ccc(Cl)cc1` [ML375]?
rat brain fu [1]: 0.003; human fu [2]: 0.013; brain:plasma Kp [3]: 1.8

Which results are given for `[2H]C([2H])([2H])Oc1ccc([C@@]23c4ccccc4C(=O)N2CCN3C(=O)c2cc(F)c(F)c(F)c2)cc1C` [VU6001005]?
improvement to rat intrinsic clearance relative to VU6000181 [4]: negligible improvement; reduction of human in vitro intrinsic clearance relative to VU6000181 ([5]; OCD3 for OCH3): ~ 5 fold; CLint scaled ([5]; human, microsomes): 72.9 mL/min/kg
